# Results: patent publication US9340590B2 (priority 2011, dated 2016)
# Positions of bridges follow the written chain, without caps; N, C: chain ends. Residues, ends and D or L forms follow the SMILES beside them.
# How the values were obtained:
# Experiment in all cases: cell-based
# hNav1.7 = hNav1.7 (Homo sapiens, UniProt Q15858); type: cell-based; details: IonWorks Quattro, Use; read-out: IWQ Use Nav1.7
# hNav1.5 = hNav1.5 (Homo sapiens, UniProt Q14524); details: IonWorks Quattro, Use; read-out: IWQ Use Nav1.5
# hNav1.3 = hNav1.3 (Homo sapiens, UniProt Q9NY46); details: IonWorks Quattro, Use; read-out: IWQ Use Nav1.3
# Sequence of hNav1.7 (Q15858 whole entry, looked up): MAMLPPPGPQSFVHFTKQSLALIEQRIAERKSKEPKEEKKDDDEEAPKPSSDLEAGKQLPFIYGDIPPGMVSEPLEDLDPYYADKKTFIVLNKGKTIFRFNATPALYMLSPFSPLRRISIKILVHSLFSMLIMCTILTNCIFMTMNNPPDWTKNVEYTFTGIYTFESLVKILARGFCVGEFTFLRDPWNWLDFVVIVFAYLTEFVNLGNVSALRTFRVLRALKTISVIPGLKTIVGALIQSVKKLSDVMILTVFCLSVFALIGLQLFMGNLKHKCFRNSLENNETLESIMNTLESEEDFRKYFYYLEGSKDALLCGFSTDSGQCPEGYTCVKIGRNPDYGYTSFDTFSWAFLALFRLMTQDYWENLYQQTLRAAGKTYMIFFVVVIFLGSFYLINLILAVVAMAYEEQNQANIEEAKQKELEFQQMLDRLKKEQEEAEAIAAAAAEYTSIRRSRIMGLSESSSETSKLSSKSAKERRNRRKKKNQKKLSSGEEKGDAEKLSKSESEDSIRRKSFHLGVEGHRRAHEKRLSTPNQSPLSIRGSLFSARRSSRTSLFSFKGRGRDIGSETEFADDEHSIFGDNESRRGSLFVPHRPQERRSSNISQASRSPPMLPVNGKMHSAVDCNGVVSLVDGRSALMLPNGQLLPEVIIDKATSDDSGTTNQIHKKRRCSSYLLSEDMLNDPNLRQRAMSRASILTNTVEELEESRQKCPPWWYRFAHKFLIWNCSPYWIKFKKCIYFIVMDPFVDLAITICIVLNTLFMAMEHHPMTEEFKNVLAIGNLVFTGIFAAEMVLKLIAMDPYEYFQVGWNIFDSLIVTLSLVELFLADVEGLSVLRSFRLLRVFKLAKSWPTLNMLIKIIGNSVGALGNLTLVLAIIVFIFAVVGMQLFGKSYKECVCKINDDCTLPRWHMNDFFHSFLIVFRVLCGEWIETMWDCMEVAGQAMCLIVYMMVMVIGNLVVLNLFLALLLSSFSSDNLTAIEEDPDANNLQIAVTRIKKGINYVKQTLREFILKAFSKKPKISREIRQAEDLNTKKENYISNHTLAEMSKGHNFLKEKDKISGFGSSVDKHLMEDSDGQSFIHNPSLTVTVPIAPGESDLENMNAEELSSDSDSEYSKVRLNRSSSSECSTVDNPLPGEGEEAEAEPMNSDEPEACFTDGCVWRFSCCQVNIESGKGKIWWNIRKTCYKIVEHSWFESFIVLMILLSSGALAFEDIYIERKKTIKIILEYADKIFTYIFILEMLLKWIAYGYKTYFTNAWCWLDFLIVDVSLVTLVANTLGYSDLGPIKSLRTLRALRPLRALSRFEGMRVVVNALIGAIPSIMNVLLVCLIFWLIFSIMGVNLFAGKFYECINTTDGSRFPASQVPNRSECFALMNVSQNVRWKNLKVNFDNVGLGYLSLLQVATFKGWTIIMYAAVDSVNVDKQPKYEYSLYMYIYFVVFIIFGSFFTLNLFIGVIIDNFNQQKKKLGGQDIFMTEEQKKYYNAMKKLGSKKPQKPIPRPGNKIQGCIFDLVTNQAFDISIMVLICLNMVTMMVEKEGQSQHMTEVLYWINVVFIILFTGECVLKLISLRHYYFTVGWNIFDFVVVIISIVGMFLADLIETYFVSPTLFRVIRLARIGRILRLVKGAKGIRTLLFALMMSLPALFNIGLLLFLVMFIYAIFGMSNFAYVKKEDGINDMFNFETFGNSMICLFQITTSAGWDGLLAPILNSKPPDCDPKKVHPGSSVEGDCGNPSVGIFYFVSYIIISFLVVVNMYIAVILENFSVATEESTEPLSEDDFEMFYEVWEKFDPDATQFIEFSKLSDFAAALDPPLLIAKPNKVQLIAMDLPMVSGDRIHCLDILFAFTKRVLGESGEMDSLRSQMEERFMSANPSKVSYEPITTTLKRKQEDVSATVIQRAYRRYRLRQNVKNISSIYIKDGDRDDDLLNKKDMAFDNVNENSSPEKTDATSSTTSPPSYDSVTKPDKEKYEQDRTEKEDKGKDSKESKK
# Sequence of hNav1.5 (Q14524 whole entry, looked up): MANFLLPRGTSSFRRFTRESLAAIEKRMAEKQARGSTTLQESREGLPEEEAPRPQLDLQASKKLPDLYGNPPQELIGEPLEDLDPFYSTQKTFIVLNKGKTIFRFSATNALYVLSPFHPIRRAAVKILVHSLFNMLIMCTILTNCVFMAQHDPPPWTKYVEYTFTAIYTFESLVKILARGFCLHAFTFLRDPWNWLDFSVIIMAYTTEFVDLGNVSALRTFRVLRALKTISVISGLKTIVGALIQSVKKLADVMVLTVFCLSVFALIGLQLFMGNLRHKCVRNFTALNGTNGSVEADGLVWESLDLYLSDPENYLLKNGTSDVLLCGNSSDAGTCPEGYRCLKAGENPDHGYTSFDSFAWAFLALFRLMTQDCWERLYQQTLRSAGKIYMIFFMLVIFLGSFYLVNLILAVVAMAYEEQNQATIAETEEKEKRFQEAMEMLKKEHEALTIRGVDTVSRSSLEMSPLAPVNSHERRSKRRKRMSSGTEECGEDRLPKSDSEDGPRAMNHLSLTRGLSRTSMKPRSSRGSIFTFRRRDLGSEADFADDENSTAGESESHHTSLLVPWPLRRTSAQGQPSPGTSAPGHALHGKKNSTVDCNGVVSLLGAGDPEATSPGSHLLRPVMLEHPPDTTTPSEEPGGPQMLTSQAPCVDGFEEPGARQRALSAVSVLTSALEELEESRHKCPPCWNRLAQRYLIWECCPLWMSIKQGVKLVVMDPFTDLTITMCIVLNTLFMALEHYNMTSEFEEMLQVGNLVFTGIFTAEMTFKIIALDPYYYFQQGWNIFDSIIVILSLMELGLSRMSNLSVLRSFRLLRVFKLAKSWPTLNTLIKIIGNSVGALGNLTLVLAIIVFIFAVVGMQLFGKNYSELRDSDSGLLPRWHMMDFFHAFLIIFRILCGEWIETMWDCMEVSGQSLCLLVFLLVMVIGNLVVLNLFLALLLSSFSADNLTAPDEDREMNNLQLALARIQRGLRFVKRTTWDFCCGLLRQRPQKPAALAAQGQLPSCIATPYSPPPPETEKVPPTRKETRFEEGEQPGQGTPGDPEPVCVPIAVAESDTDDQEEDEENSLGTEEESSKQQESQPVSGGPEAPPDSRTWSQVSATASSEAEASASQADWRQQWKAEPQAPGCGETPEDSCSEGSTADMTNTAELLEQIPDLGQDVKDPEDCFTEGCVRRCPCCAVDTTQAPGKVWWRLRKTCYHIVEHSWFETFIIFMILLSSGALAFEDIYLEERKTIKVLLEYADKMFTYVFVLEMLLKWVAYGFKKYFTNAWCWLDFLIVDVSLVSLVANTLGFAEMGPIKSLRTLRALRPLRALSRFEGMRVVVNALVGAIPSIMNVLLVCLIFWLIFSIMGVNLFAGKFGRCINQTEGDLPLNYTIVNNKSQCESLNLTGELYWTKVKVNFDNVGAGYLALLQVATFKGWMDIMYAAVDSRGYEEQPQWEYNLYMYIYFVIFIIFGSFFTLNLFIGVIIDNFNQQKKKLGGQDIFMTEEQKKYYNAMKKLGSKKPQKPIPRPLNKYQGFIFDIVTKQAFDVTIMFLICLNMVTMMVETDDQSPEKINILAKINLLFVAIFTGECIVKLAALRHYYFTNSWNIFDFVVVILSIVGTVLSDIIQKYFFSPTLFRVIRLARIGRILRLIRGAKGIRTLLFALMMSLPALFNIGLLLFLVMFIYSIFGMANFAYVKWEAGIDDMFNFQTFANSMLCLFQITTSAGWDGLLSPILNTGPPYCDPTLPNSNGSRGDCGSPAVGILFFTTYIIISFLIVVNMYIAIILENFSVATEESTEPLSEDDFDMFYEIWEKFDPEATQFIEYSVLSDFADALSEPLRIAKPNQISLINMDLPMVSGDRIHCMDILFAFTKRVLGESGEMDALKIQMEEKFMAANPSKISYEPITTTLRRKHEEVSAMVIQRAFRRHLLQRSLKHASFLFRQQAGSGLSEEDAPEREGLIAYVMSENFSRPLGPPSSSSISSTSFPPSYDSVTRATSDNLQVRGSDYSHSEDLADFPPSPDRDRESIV
Compound,IC50 (hNav1.7) [nM],IC50 (hNav1.5) [nM],IC50 (hNav1.3) [nM]
"CSCC[C@@H]1NC(=O)[C@H](Cc2ccccc2)NC(=O)CNC(=O)[C@H](CC(C)C)NC(=O)[C@@H](NC(=O)[C@@H](N)CC(=O)O)CSSC[C@@H]2NC(=O)[C@@H]3CSSC[C@@H](C(=O)N[C@@H](CCCCN)C(=O)N[C@@H](Cc4ccc(O)cc4)C(=O)N[C@H](C(=O)N[C@@H](Cc4ccccc4)C(N)=O)C(C)C)NC(=O)[C@H](Cc4c[nH]c5ccccc45)NC(=O)[C@H](CCCCN)NC(=O)[C@H](Cc4c[nH]cn4)NC(=O)[C@H]([C@@H](C)O)NC(=O)[C@H](CCCNC(=N)N)NC(=O)[C@H](CO)NC(=O)[C@H](CSSC[C@H](NC(=O)[C@H](CCCCN)NC(=O)[C@H](CCCNC(=N)N)NC1=O)C(=O)N1CCC[C@H]1C(=O)N1CCC[C@H]1C(=O)N[C@@H](CC(=O)O)C(=O)N[C@@H](CC(N)=O)C(=O)N[C@@H](CC(=O)O)C(=O)N[C@@H](CCCCN)C(=O)N3)NC(=O)[C@H](C(C)C)NC(=O)[C@H](CC(C)C)NC(=O)[C@H](CC(N)=O)NC(=O)[C@@H]1CCCN1C(=O)[C@H](CCCNC(=N)N)NC2=O [compound 308] (H-DCLGFMRKCPPDNDKCCRPNLVCSRTHKWCKYVF-NH2; disulfide 2-17, 9-23, 16-30)",400,> 5000,240
CSCC[C@@H]1NC(=O)[C@H](Cc2ccccc2)NC(=O)CNC(=O)[C@H](CC(C)C)NC(=O)[C@@H](NC(=O)[C@@H](N)CC(=O)O)CSSC[C@@H]2NC(=O)[C@@H]3CSSC[C@@H](C(=O)N[C@@H](CCCCN)C(=O)N[C@@H](Cc4ccc(O)cc4)C(=O)N[C@H](C(=O)N[C@@H](Cc4ccccc4)C(N)=O)C(C)C)NC(=O)[C@H](Cc4c[nH]c5ccccc45)NC(=O)[C@H](CCCCN)NC(=O)[C@H](Cc4c[nH]cn4)NC(=O)[C@H]([C@@H](C)O)NC(=O)[C@H](CCCNC(=N)N)NC(=O)[C@H](CO)NC(=O)[C@H](CSSC[C@H](NC(=O)[C@H](CCCCN)NC(=O)[C@H](CCCNC(=N)N)NC1=O)C(=O)N[C@@H](Cc1ccc(C(=O)O)cc1)C(=O)N1CCC[C@H]1C(=O)N[C@@H](CC(=O)O)C(=O)N[C@@H](CC(N)=O)C(=O)N[C@@H](CC(=O)O)C(=O)N[C@@H](CCCCN)C(=O)N3)NC(=O)[C@H](C(C)C)NC(=O)[C@H](CC(C)C)NC(=O)[C@H](CC(N)=O)NC(=O)[C@@H]1CCCN1C(=O)[C@H](CCCNC(=N)N)NC2=O [compound 310],280,6870,230
CSCC[C@@H]1NC(=O)[C@H](Cc2ccccc2)NC(=O)CNC(=O)[C@H](CC(C)C)NC(=O)[C@@H](NC(=O)[C@@H](N)CC(=O)O)CSSC[C@@H]2NC(=O)[C@@H]3CSSC[C@@H](C(=O)N[C@@H](CCCCN)C(=O)N[C@@H](Cc4ccc(O)cc4)C(=O)N[C@H](C(=O)N[C@@H](Cc4ccccc4)C(N)=O)C(C)C)NC(=O)[C@H](Cc4c[nH]c5ccccc45)NC(=O)[C@H](CCCCN)NC(=O)[C@H](Cc4c[nH]cn4)NC(=O)[C@H]([C@@H](C)O)NC(=O)[C@H](CCCNC(=N)N)NC(=O)[C@H](CO)NC(=O)[C@H](CSSC[C@H](NC(=O)[C@H](CCCCN)NC(=O)[C@H](CCCNC(=N)N)NC1=O)C(=O)N[C@@H](Cc1ccccn1)C(=O)N1CCC[C@H]1C(=O)N[C@@H](CC(=O)O)C(=O)N[C@@H](CC(N)=O)C(=O)N[C@@H](CC(=O)O)C(=O)N[C@@H](CCCCN)C(=O)N3)NC(=O)[C@H](C(C)C)NC(=O)[C@H](CC(C)C)NC(=O)[C@H](CC(N)=O)NC(=O)[C@@H]1CCCN1C(=O)[C@H](CCCNC(=N)N)NC2=O [compound 311],190,8830,40
